The nature of series [1]: Toxicity in male BALB/c mouse assessed as survival rate at 29.2 mg/kg, ip measured after 7 days relative to control. It counts as organism-based. To be noted: in vivo, time 7 day.
Series [2] deals with Staphylococcus aureus. Kind of series: In vivo antibacterial activity against Staphylococcus aureus ATCC 25923 infected in BALB/c mouse model assessed as reduction in bacterial count in liver at 10 mg/kg, ip preadministered with compound for 1 hr followed by bacterial infection and measured after 6 hrs […]. It counts as functional, organism-based. To be noted: time 7.0 hrs.

Series [3] relates to Staphylococcus aureus. Kind of series: Antibacterial activity against Staphylococcus aureus ATCC 25923 pretreated with FeCl3 followed by compound addition and measured after 2 hrs by broth microdilution method (reference value: 8 microM). It counts as functional. A general note: In broth dilution the organism is exposed to a series of concentrations in liquid medium.
Series [4] has as its system Staphylococcus aureus. Kind of series: Antibiofilm activity against Staphylococcus aureus ATCC 25923 assessed as biofilm eradication at 1/2 to 4 times MIC measured after 24 hrs by crystal violet staining based analysis. It counts as functional, organism-based.
The test system of series [5] is Staphylococcus aureus. Kind of series: Antibacterial activity against Staphylococcus aureus ATCC 25923 pretreated with 10% mouse serum followed by compound addition and measured after 6 hrs by broth microdilution method (reference value: 8 microM). Format: functional.
In series [6] the test system is Staphylococcus aureus. Kind of series: Antibacterial activity against Staphylococcus aureus ATCC 25923 assessed as fold increase in MIC pretreated with 2.5 to 20% mouse serum followed by compound addition and measured after 1 to 6 hrs by broth microdilution method. Format: functional. To be noted: time 1-6 hrs.
The nature of series [7]: Toxicity in male BALB/c mouse assessed as survival rate at 42.6 mg/kg, ip measured after 6 days relative to control. Format: organism-based. To be noted: in vivo, time 6 day.
Series [8] can be described thus: Toxicity in male BALB/c mouse assessed as hemorrhage in kidney at 46.88 mg/kg, ip administered as single dose by H and E staining based analysis. Format: organism-based. The conditions noted are these: in vivo.
Series [9] has as its system Staphylococcus aureus. Kind of series: Antibacterial activity against Staphylococcus aureus ATCC 25923 assessed as fold increase in MIC pretreated with KCl followed by compound addition and measured after 2 hrs by broth microdilution method. Format: functional.
The test system of series [10] is Pseudomonas aeruginosa. Kind of series: Bactericidal activity against Pseudomonas aeruginosa ATCC 27853 assessed as assessed as eradication of bacterial cells at 1/2 to 1 times MIC measured after 0.5 hr by time killing analysis relative to control. It counts as functional.
For series [11], the system named is Staphylococcus aureus. Kind of series: Antibacterial activity against Staphylococcus aureus ATCC 25923 pretreated with 20% mouse serum followed by compound addition and measured after 6 hrs by broth microdilution method (reference value: 8 microM). It counts as functional.
Series [12] relates to Cell membrane. Kind of series: Induction of cytoplasmic membrane depolarization in Staphylococcus aureus ATCC 25923 assessed as increase in fluorescence intensity measured upto 12 min by DiSC3-5 dye based fluorescence method. It counts as cell membranes.
In series [13] the test system is Staphylococcus aureus. Kind of series: Antibacterial activity against Staphylococcus aureus ATCC 25923 pretreated with 10% mouse serum followed by compound addition and measured after 1 hr by broth microdilution method (reference value: 8 microM). It counts as functional.
Series [14] is described as follows: Toxicity in male BALB/c mouse assessed as inflammatory cell infiltration in liver at 46.88 mg/kg, ip administered as single dose by H and E staining based analysis. It counts as organism-based. The conditions noted are these: in vivo.
Series [15] deals with Pseudomonas aeruginosa. Kind of series: Bactericidal activity against Pseudomonas aeruginosa ATCC 27853 assessed as assessed as eradication of bacterial cells at 2 to 4 times MIC measured after 10 mins by time killing analysis. It counts as functional, organism-based.
The subject of series [16] is Staphylococcus aureus. Kind of series: Antibacterial activity against Staphylococcus aureus ATCC 25923 pretreated with 5% mouse serum followed by compound addition and measured after 1 hr by broth microdilution method (reference value: 8 microM). It counts as functional.
The nature of series [17]: Toxicity in male BALB/c mouse assessed as survival rate at 132.7 mg/kg, ip measured after 6 days relative to control. It counts as organism-based. The conditions noted are these: in vivo, time 6 day.
The subject of series [18] is Staphylococcus aureus. Kind of series: Antibacterial activity against Staphylococcus aureus ATCC 25923 pretreated with 5% mouse serum followed by compound addition and measured after 6 hrs by broth microdilution method (reference value: 64 microM). It counts as functional.
In series [19] the test system is Staphylococcus aureus. Kind of series: Antibacterial activity against Staphylococcus aureus ATCC 25923 pretreated with 20% mouse serum followed by compound addition and measured after 6 hrs by broth microdilution method (reference value: 64 microM). Format: functional.
For series [20], the system named is Staphylococcus aureus. Kind of series: Antibacterial activity against Staphylococcus aureus ATCC 25923 pretreated with Fecl3 followed by compound addition and measured after 2 hrs by broth microdilution method (reference value: 64 microM). Format: functional.
Series [21] has as its system Staphylococcus aureus. Kind of series: Antibacterial activity against Staphylococcus aureus ATCC 25923 assessed as fold increase in MIC pretreated with 2.5 to 20% mouse serum followed by compound addition and measured after 6 hr by broth microdilution method. It counts as functional.
In series [22] the test system is Pseudomonas aeruginosa. Kind of series: Antimicrobial activity against Pseudomonas aeruginosa ATCC 27853 assessed as reduction in microbial growth at 2 times MIC measured for 18 hrs in presence of 64 microg/ml LPS. Format: functional, organism-based.
Series [23] concerns Staphylococcus aureus. Kind of series: Antibacterial activity against Staphylococcus aureus ATCC 25923 pretreated with 10% mouse serum followed by compound addition and measured after 1 hr by broth microdilution method (reference value: 64 microM). Format: functional.
Series [24] deals with Cell membrane. Kind of series: Induction of cytoplasmic membrane depolarization in Pseudomonas aeruginosa ATCC 27853 assessed as increase in fluorescence intensity at 2 to 4 times MIC measured upto 12 min by DiSC3-5 dye based fluorescence method. Format: cell membranes.
Series [25] has as its system Staphylococcus aureus. Kind of series: Antibacterial activity against Staphylococcus aureus ATCC 25923 pretreated with 2.5% mouse serum followed by compound addition and measured after 1 hr by broth microdilution method (reference value: 64 microM). Format: functional.
Series [26] relates to Staphylococcus aureus. Kind of series: Antibacterial activity against Staphylococcus aureus ATCC 25923 assessed as fold increase in MIC pretreated with Na-cl followed by compound addition and measured after 2 hrs by broth microdilution method. Format: functional.
The subject of series [27] is Cell membrane. Kind of series: Induction of outer membrane permeabilization in Pseudomonas aeruginosa ATCC 27853 assessed increase in fluorescence intensity at 1 MIC measured upto 12 mins by fluorescence based NPN uptake assay. It counts as cell membranes.
The subject of series [28] is Staphylococcus aureus. Kind of series: Induction of morphological changes in Staphylococcus aureus ATCC 25923 assessed as membrane rupture at 2 times MIC measured after 0.5 hrs by SEM based analysis. Format: functional, organism-based.
Series [29] relates to Cell membrane. Kind of series: Induction of cytoplasmic membrane depolarization in Pseudomonas aeruginosa ATCC 27853 assessed as increase in fluorescence intensity at 4 times MIC measured upto 12 min by DiSC3-5 dye based fluorescence method. Format: cell membranes.
The subject of series [30] is Staphylococcus aureus. Kind of series: Antibacterial activity against Staphylococcus aureus ATCC 25923 pretreated with 10% mouse serum followed by compound addition and measured after 6 hrs by broth microdilution method (reference value: 16 microM). It counts as functional, organism-based.
The test system of series [31] is Staphylococcus aureus. Kind of series: Antibacterial activity against Staphylococcus aureus ATCC 25923 pretreated with 20% mouse serum followed by compound addition and measured after 1 hr by broth microdilution method (reference value: 16 microM). It counts as functional, organism-based.
For series [32], the system named is Staphylococcus aureus. Kind of series: Antibacterial activity against Staphylococcus aureus ATCC 25923 pretreated with 5% mouse serum followed by compound addition and measured after 6 hrs by broth microdilution method (reference value: 16 microM). Format: functional, organism-based.
For series [33], the system named is Staphylococcus aureus. Kind of series: Antibacterial activity against Staphylococcus aureus ATCC 25923 pretreated with 10% mouse serum followed by compound addition and measured after 1 hr by broth microdilution method (reference value: 16 microM). It counts as functional, organism-based.
The test system of series [34] is Staphylococcus aureus. Kind of series: Antibacterial activity against Staphylococcus aureus ATCC 25923 at sub-MIC measured after 6 days. The conditions noted are these: time 6.0 day. Format: functional, organism-based.
The test system of series [35] is Staphylococcus aureus. Kind of series: Antibacterial activity against Staphylococcus aureus ATCC 25923 pretreated with Na-cl followed by compound addition and measured after 2 hrs by broth microdilution method (reference value: 16 microM). Format: functional, organism-based.

In brackets after ≈: the same amount, converted by molar mass. Activity calls are given as the source filed them. The calls are words filed in the database; no cut-off is given here. Bridge positions count the residues as written; N and C are the ends. Square brackets hold non-standard residues; d marks the D form. Peptide text beside a SMILES is read from it. * marks the point of attachment. ξ: configuration not given here. Hexanoyl(4ξ-Me) = CCC(C)CCC(=O)*; dOrn = NCCC[C@@H](N)C(=O)O; Orn = NCCC[C@H](N)C(=O)O Where only a bound is given, the exact number is not on record here.

Regarding `CCCCCCCCCC(=O)N[C@H](CCCN)C(=O)N[C@H](Cc1ccc(O)cc1)C(=O)N[C@H](Cc1c[nH]c2ccccc12)C(=O)N[C@H](CCCN)C(=O)N[C@@H](CCCN)C(=O)NCC(=O)N[C@H](CCCN)C(=O)N[C@@H](Cc1c[nH]c2ccccc12)C(=O)N[C@H](C(=O)N[C@H](C(=O)NCC(=O)N[C@@H](CO)C(=O)O)[C@@H](C)CC)[C@@H](C)O`, the survival at 168 h in [1] was 100%. In addition, the result in the series with Staphylococcus aureus [2], in the series with Staphylococcus aureus [4] and with Pseudomonas aeruginosa [15] was Active. Further, the minimal inhibitory concentration (MIC) in the series with Staphylococcus aureus [3] is 8 µM (≈ 12.6 µg/mL); in the series on Staphylococcus aureus [5], 32 µM (≈ 50.6 µg/mL); in the series with Staphylococcus aureus [11] it was more than 128 µM; with Staphylococcus aureus [13], 32 µM (≈ 50.6 µg/mL); with Staphylococcus aureus [16], 16 µM (≈ 25.3 µg/mL). Further, the entries for the “fold change (FC)” value in the series with Staphylococcus aureus [6] and with Staphylococcus aureus [9] were 4 and 2, respectively. Further, the results for the survival at 144 h in series [7] and in [17] were 50% and 0%, respectively. Further, the Activity result in series [8] is “Toxic”; in the series on Pseudomonas aeruginosa [10], 100%; with Cell membrane [12], “Dose-Dependent Effect”; in series [14] it was “Toxic”.
Turning to `CCC(C)CCC(=O)N[C@H](CC(N)=O)C(=O)N[C@H](Cc1ccc(O)cc1)C(=O)N[C@H](Cc1c[nH]c2ccccc12)C(=O)N[C@H](CCCN)C(=O)N[C@@H](CCCN)C(=O)NCC(=O)N[C@H](CCCN)C(=O)N[C@@H](Cc1c[nH]c2ccccc12)C(=O)N[C@@H]1C(=O)N[C@@H]([C@@H](C)CC)C(=O)NCC(=O)N[C@@H](CO)C(=O)O[C@@H]1C` (stereo not given in full) ({Hexanoyl(4ξ-Me)}-[dN][dY][dW][dOrn][Orn]G[dOrn]WTIGS; ester 9-C), the minimum inhibitory concentration (MIC) was found to be 128 µM (≈ 195 µg/mL) in the series with Staphylococcus aureus [18]; 128 µM (≈ 195 µg/mL) in the series on Staphylococcus aureus [19]; 64 µM (≈ 97.3 µg/mL) with Staphylococcus aureus [20]; 64 µM (≈ 97.3 µg/mL) with Staphylococcus aureus [23]; 64 µM (≈ 97.3 µg/mL) in the series on Staphylococcus aureus [25]. Also, the “fold change (FC)” value in the series on Staphylococcus aureus [21] and in the series with Staphylococcus aureus [26] was 2 in each case. The result with Pseudomonas aeruginosa [22] was inactive. Further, the result with Cell membrane [24], with Cell membrane [27] and in the series with Staphylococcus aureus [28] was Active.
On to POLYMYXIN B, for which the result with Cell membrane [29] and in the series on Staphylococcus aureus [34] was inactive. Besides, the minimum inhibitory concentration (MIC) with Staphylococcus aureus [30], with Staphylococcus aureus [31], with Staphylococcus aureus [32], in the series with Staphylococcus aureus [33] and with Staphylococcus aureus [35] was 16 µM each time.

As usually defined, the MIC is the lowest concentration that inhibits growth of the organism.

The record behind these values is ChEMBL document CHEMBL5512645, “A novel antimicrobial peptide with broad-spectrum and exceptional stability derived from the natural peptide Brevicidine” (Eur J Med Chem, 2024).
